# Assay results taken from patent US9662360B2, “Treatment of herpes, pseudomonas, staph, and hepatitis” (priority 2008, dated 2017).
# Values joined by “and” are separate entries in the source; they are usually repeats but may differ in a detail not shown here. Equal entries are not always repeated.
# Columns and labels:
# [1] = tested on: transmission of virus from chronically infected H9 cells to ME180 cervical epithelial cells; assay: Topical microbicide assay (p24 ELISA); format: cell-based, HIV; settings: qualitative
# Procedure: MEI 180 cervical epithelial cells were plated in the interior walls of a 96-well flat bottom microtiter plate at a density of […] cells per well and incubated overnight. Chronically infected H9 cells wee treated with 200 μg/ml mitomycin C in complete medium for one hour, washed extensively and resuspended at 4×10^5 per ml. […] Antiviral compounds and chronically infected cells (2×10^4) were added to each well containing ME180 cells and incubated for 6 hours. Following co-cultivation the monolayer was washed extensively and fresh medium added. Medium was removed and fresh medium added at 24 and 48 hours post-infection to remove dead lymphocytes. On day 6 post-infection, supernatant samples were removed and analyzed for virus content by p24 ELISA.
# [2] = cited from earlier work
# HSV-1 = assay: In vitro HSV-1 plaque inhibition on fibroblasts; format: cell-based
# Procedure: Laboratory testing was undertaken at the University Of Chicago, Clinical Microbiology Laboratories to determine inhibitory activity in vitro of the medical treatment and composition (medicine). The laboratory testing was conducted by the Associate Director, PhD, and Associate Professor of Pathology. […] It was stated by the pathologist, that they had tested “hundreds” of other compounds and had never seen anything as good as what this compound did. The following are the tests of the medicine that were conducted and results that were obtained at The University of Chicago. For ease of interpreting some of the scientific data and test results, the following definitions apply: • “MEM” pertains to Minimal Essential Medium. This is the culture medium used in laboratories for growing the cells upon which tests were run. • “Fibroblast” is a mesenchyme human cell (a cell found in connective tissue, blood, bone, lymphatics, and cartilage). • “IC50” pertains to the Inhibitory Concentrate. […] 1. Three 24-compartment plates were inoculated with fibroblasts. […] There were four control compartments on each plate containing MEM without drug. 2. The growth media was removed from the compartments and 200 ul of HSV-1 was added to each compartment of the upper half of each plate. HSV-1 was diluted 1:5000 (2.0 ul of stock HSV-1 in 10 mL of MEM). […] Also, 200 ul of HSV-2 was added to each compartment of the lower half of each plate. HSV-2 was diluted 1:2,000 (5.0 ul of stock HSV-2 in 10 mL of MEM). The virus titer was 6×10^5 per mL. 3. The plates were incubated at 37° C. for two hours. 4. The inoculum was removed and one mL of the MEM containing Drugs #1-3 were added to the four compartments. The concentration of the drug compared to the MEM is indicated below. 1. Three plates were used to screen the three drug preparations. […] There were four control compartments on each plate containing MEM without drug. 2. The growth media was removed from the compartments and 200 ul of HSV-1 was added to each compartment of the upper half of each plate. HSV-1 was diluted 1:5000 (2.0 ul of stock HSV-1 in 10 mL of MEM). […] 3. The plates were incubated at 37° C. for four hours. 4. The inoculum was removed and one mL of the MEM containing drugs #1A-3A were added to the four compartments. 1. Four plates were used to screen the four drug preparations. […] There were four control compartments on each plate containing MEM without drug. 2. The growth media was removed from the compartments and 200 ul of HSV-1 was added to each compartment of the upper two rows of each plate. HSV-1 was diluted 1:5000 (2.0 ul of stock HSV-1 in 10 mL of MEM). […] Also, 200 ul of HSV-2 was added to each compartment of the lower half of each plate. HSV-2 was diluted 1:2,000 (5.0 ul of stock HSV-2 in 10 mL of MEM). The virus titer was 6×10^5 per mL. 3. The plates were incubated at 37° C. for four hours. 4. The inoculum was removed and one mL of the MEM containing drugs #1-4 was added to the four compartments.
# HSV-2 = assay: In vitro HSV-2 plaque inhibition on fibroblasts; format: cell-based
# Procedure: Laboratory testing was undertaken at the University Of Chicago, Clinical Microbiology Laboratories to determine inhibitory activity in vitro of the medical treatment and composition (medicine). The laboratory testing was conducted by the Associate Director, PhD, and Associate Professor of Pathology. […] It was stated by the pathologist, that they had tested “hundreds” of other compounds and had never seen anything as good as what this compound did. The following are the tests of the medicine that were conducted and results that were obtained at The University of Chicago. For ease of interpreting some of the scientific data and test results, the following definitions apply: • “MEM” pertains to Minimal Essential Medium. This is the culture medium used in laboratories for growing the cells upon which tests were run. • “Fibroblast” is a mesenchyme human cell (a cell found in connective tissue, blood, bone, lymphatics, and cartilage). • “IC50” pertains to the Inhibitory Concentrate. […] Three 24-compartment plates were inoculated with fibroblasts. […] There were four control compartments on each plate containing MEM without drug. 2. The growth media was removed from the compartments and 200 ul of HSV-1 was added to each compartment of the upper half of each plate. […] Also, 200 ul of HSV-2 was added to each compartment of the lower half of each plate. […] The virus titer was 6×10^5 per mL. 3. The plates were incubated at 37° C. for two hours. 4. The inoculum was removed and one mL of the MEM containing Drugs #1-3 were added to the four compartments. The concentration of the drug compared to the MEM is indicated below. […] Four plates were used to screen the four drug preparations. […] There were four control compartments on each plate containing MEM without drug. 2. The growth media was removed from the compartments and 200 ul of HSV-1 was added to each compartment of the upper two rows of each plate. […] Also, 200 ul of HSV-2 was added to each compartment of the lower half of each plate. […] The virus titer was 6×10^5 per mL. 3. The plates were incubated at 37° C. for four hours. 4. The inoculum was removed and one mL of the MEM containing drugs #1-4 was added to the four compartments.
# [3] = tested on: clinical HIV isolate ROJO in fresh human PBMCs; assay: PBMC/ROJO reverse transcriptase activity assay; format: cell-based; settings: qualitative; PHA blastogenesis
# Procedure: A microtiter based reverse transcriptase (RT) reaction was utilized. Tritiated thymidine triphosphate (NEN) (TTP) was resuspended in distilled H2O at 5 Ci/ml. Poly rA and oligo dT were prepared as a stock solution which was kept at −20° C. The RT reaction buffer was prepared fresh on a daily basis and consists of 125 μl MEGTA, 125 μl dH2O, 125 μl Triton X-100, 50 μl 1M Tris (pH 7.4), 50 μl MDTT, and 40 μl MMgCl2. These three solutions were mixed together in a ratio of 1 parts TTP, 2.5 parts poly rA:oligo dT, 2.5 parts reaction, the reaction buffer and 4 parts distilled water. Ten microliters of this reaction mixture was placed in a round bottom microtiter plate and 15 μl of virus containing supernatant was added and mixed. The plate was incubated at 37° C. and incubated for 60 minutes. […] Incorporated radioactivity was quantitated utilizing a Wallac Microbeta scintillation counter. […]
# In the standard PBL assay (MOI: 0.2), the assay was ended on day 7 following collection of cell free supernatant samples for reverse transcriptase activity assay. In the low MOI PBL assay (MOI: 0.02), supernatant samples were collected on day 6, day 11, and day 14 post-infection and analyzed for […]. […]
# [4] = tested on: HIV-1 clinical isolate ADA in fresh human monocyte-macrophages; assay: Anti-HIV monocyte-macrophage assay (p24 ELISA); format: cell-based; settings: for P-24 Activity: vs. ADA
# Procedure: ELISA kits were purchased from Coulter. The assay is performed according to the manufacturer's recommendations. Prior to ELISA analysis, the reverse transcriptase activity assays were routinely performed and the values were used for incorporated radioactivity in the RT activity assay to determine the dilution of samples required for the ELISA. Control curves were generated in each assay to accurately quantititate the amount of capsid protein in each sample. Data was obtained by spectrophotometric analysis at 450 nm using a Molecular Devices Vmax plate reader. P24 concentrations were calculated from the optical density values by use of the Molecular Devices software package Soft Max.
# For isolation of a adherent cells, 3×10^6 non-PHA stimulated peripheral blood cells were resuspended in Hanks buffered saline with calcium and magnesium supplemented with 10% human AB serum. The cells were placed in a 24-well microtiter plate at 37° C. for 2 hours. Non-adherent cells were removed by vigorously washing six times. The adherent cells were cultured for 7 days in RPM1 1640 tissue culture medium with 15% fetal bovine serum. The cultures were carefully monitored for confluency during this incubation period. Infection of the cells was performed with the monocytotropic HIV-1 strains BaL or ADA and the matched pair of AZT-sensitive and AZT-resistant virus isolates. Each of these virus isolates was obtained from the NLAID AIDS Research and Reference Reagent Program. High titer pools of each of these viruses have been harvested from infected cultures of peripheral blood adherent cells and frozen in 1.0 ml aliquots at −80° C. Monocyte-macrophage monolayers were infected at an MOI of 0.1. […] Compounds to be evaluated in the monocyte-macrophage assay were added to the monolayers shortly before infection in order to maximize the potential for identifying active compounds.
# At two days post-infection, the medium was decanted and the cultures washed twice with complete medium in order to remove excess virus. Fresh medium alone or medium containing the appropriate concentration of drugs was added and incubation continued for an additional 5 days. XTT-tetrazolium or trypan blue exclusion assays for cell viability and HIV p24 ELISA assays for production of p24 core antigen were performed on Day 7 post-infection. ELISA kits were purchased from Coulter. Control curves were generated in each assay to accurately quantitate the amount of capsid protein in each sample. Data was obtained by spectrophotometric analysis at 450 nm using a Molecular Devices Vmax plate reader. P24 concentrations were calculated from the optical density values by use of the Molecular Device software package Soft Max.
molecule,measurement,setting,value
Dextran sulfate,activity in topical microbicide assay,[1],expected level of activity
OCc1ccccc1 [Benzyl alcohol],solubility in water,[2],4 g/100 mL
Benzalkonium chloride [Drug #1B],plaques,"HSV-1; HSV-1, 1:20",toxic
same,plaques,"HSV-1; HSV-1, 1:40",toxic
same,plaques,"HSV-1; HSV-1, 1:80",toxic
same,plaques,"HSV-1; HSV-1, 1:160",toxic
same,plaques,"HSV-1; HSV-1, 1:320",15?* and 18?*
same,plaques,"HSV-2; HSV-2, 1:20",toxic
same,plaques,"HSV-2; HSV-2, 1:40",toxic
same,plaques,"HSV-2; HSV-2, 1:80",toxic
same,plaques,"HSV-2; HSV-2, 1:160",toxic
same,Average plaques,"HSV-2; HSV-2, 1:320",19
same,plaques,"HSV-2; HSV-2, 1:320",21 and 17
Benzalkonium chloride [Drug #1A],plaques,"HSV-1; HSV-1, 1:2",toxic
same,plaques,"HSV-1; HSV-1, 1:4",toxic
same,plaques,"HSV-1; HSV-1, 1:8",toxic
same,plaques,"HSV-1; HSV-1, 1:16",toxic
same,plaques,"HSV-1; HSV-1, 1:32",toxic
"Cc1cn([C@H]2C[C@H](N=[N+]=[N-])[C@@H](CO)O2)c(=O)[nH]c1=O [AZT, zidovudine]",inhibition of replication of isolate ROJO in fresh human PBMCs,[3],expected level of activity
same,activity in monocyte-macrophages infected with ADA,[4]; qualitative,expected level of activity
same,P-24 Activity,[4]; 0.0004 μM,1005.00 pg/mL and 1252.00 pg/mL and 954.10 pg/mL and 1097.00 pg/mL and 1160.00 pg/mL and 1098.00 pg/mL
same,P-24 Activity,[4]; 0.0014 μM,919.00 pg/mL and 1150.00 pg/mL and 678.70 pg/mL and 821.90 pg/mL and 594.80 pg/mL and 983.10 pg/mL
same,P-24 Activity,[4]; 0.004 μM,470.80 pg/mL and 660.90 pg/mL and 912.30 pg/mL and 914.90 pg/mL and 891.20 pg/mL and 499.20 pg/mL
dextran,activity in topical microbicide assay,[1],expected level of activity
